The CheMixHub viscosity set

Experiment: xn = mol fraction of the nth substance listed
Conditions: 100 kPa

CCNCC + CCCCCCCCO
viscosity [mPa·s]
Conditions	x1 = 0.0804	x1 = 0.16	x1 = 0.2402	x1 = 0.3517	x1 = 0.4405	x1 = 0.5609	x1 = 0.65	x1 = 0.7404	x1 = 0.8495	x1 = 0.9402
293.15 K	8.22	7.36	6.53	5.45	4.61	3.56	2.82	2.13	1.33	0.7
303.15 K	5.75	5.14	4.54	3.76	3.18	2.44	1.94	1.46	0.93	0.53
313.15 K	4.15	3.7	3.26	2.69	2.28	1.75	1.4	1.06	0.69	0.42
323.15 K	3.05	2.71	2.39	1.97	1.67	1.3	1.04	0.8	0.54	0.34

Nc1ccccc1 + CCCCCCCCO
viscosity [mPa·s]
Conditions	x1 = 0.0862	x1 = 0.1575	x1 = 0.2382	x1 = 0.3514	x1 = 0.4471	x1 = 0.5637	x1 = 0.6558	x1 = 0.7476	x1 = 0.8555	x1 = 0.9421
293.15 K	8.01	7.27	6.6	5.83	5.28	4.66	4.4	4.19	4.03	4.14
303.15 K	5.66	5.15	4.7	4.15	3.77	3.36	3.15	3.03	2.93	3
313.15 K	4.11	3.75	3.47	3.1	2.85	2.57	2.43	2.34	2.3	2.36
323.15 K	3.09	2.85	2.63	2.37	2.18	1.98	1.89	1.83	1.81	1.86
